Assay results reported in patent US7449480B2, “Small molecule inhibitors of HER2 expression” (Baylor College of Medicine, priority 2002, dated 2008).
Entries after “also recorded” stand apart in the source; their conditions may differ.

Columns and labels:
Her2 = Her2 protein expression by western blot of cell lysates; type: cell-based, human; details: SK-BR3 cells, 7.3 μM, 24 hrs; α-tubulin not reduced; listed as adamanolol
Description: Sur-2 is a human homolog of […] elegans Sur-2, a protein of unknown function whose mutations suppress the phenotype of an activated ras mutation (Singh et al., 1995), and it has been linked to the transcription-activating function of the adenovirus E1A protein and the Elk-1 transcription factor. […] To test this, we designed a cell-permeable peptide that binds Sur-2 (referred to as TAT-ESX129-145). The design takes advantage of the binding affinity of ESX129-145 and the cell internalization property of the 11-aa peptide derived from the HIV TAT protein. We first examined whether TAT ESX129-145 reduces endogenous expression of the Her2 gene in three Her2-overexpressing breast cancer cell lines, SK-BR-3, MDA-MB-453, and […] (FIG. 4). Cells were incubated in the presence or absence of TAT-ESX129-145, and the protein levels of Her2 were examined by Western blot analyses of normalized amounts of cell lysates.
Her2-overexpressing SK-BR3 cells were treated by 7.3 μM of adamanolol for 24 hrs, and whole cell lysates were analyzed by western blots. […]
SK-BR3 cells were treated by 7 μM of wrenchnolol for 24 hrs, and whole cell lysates were analyzed by western blots. […]

MDA-MB468 = test: Growth and viability of Her2-negative MDA-MB468 cells; type: cell-based, human; details: no detectable levels of Her2; 24 hrs
Description: (§1) In contrast to the Her2-overexpressing cells, MDA-MB-468, a breast cancer cell line with no detectable levels of Her2, was resistant to TAT-ESX129-145 (FIGS. 5A and 5B). […] The effects of TAT-ESX129-145 on an MCF7 cell line stably transfected with the Her2 gene were examined.
(§2) The breast cancer cells were plated on 96-well plates at the density of 5×10^3 cells/well and maintained for 24 hrs. Adamanolol was added to the medium at varied concentrations and incubated for another 24 hrs. Premix WST-1 solution (Takara) was added to each well and incubated for 2 hrs. Cell viability was estimated by measuring absorbance at 450 nm with a SPECTRAmax microplate reader.

ESX-Sur-2 interaction = target: T1, ESX-Sur-2 interaction (Homo sapiens, UniProt Q9ULK4); test: Inhibition of the ESX-Sur-2 interaction in vitro (fluorescence of FITC-ESX129-145 with GST-Sur2352-625); type: binding; details: for IC50: FITC-ESX129-145 (152 nM), GST-Sur2352-625 (212 nM); for inhibition of the ESX-Sur-2 interaction in vitro (in words): in vitro fluorescence assay
T1 construct: made in house
T1 sequence (Q9ULK4 352-625): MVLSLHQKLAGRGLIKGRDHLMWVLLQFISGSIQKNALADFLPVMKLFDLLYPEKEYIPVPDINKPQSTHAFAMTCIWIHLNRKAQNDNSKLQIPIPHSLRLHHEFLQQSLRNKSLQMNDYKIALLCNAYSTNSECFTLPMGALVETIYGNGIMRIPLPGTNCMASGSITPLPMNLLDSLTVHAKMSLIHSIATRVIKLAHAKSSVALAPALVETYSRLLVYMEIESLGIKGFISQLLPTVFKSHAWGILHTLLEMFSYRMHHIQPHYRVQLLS
Description: To monitor the ESX-DRIP130 interaction, we labeled ESX129-145 with fluorescein isothiocyanate (FITC; Pierce) at the Lys144 position and measured its fluorescence spectra upon adding the glutatathione-S′-transferase (GST) fusion of DRIP130352-625. ESX129-145 was synthesized by standard Fmoc chemistry (the NH2 terminus was capped by an acetyl group during the synthesis) and purified by HPLC. The peptide was then coupled with FITC at the Lys144 position in a conjugation buffer (100 mM carbonate-bicarbonate buffer, pH 9) in dark and purified by NAP-5 desalting column (Amersham). The labeled peptide was quantified by UV and visible absorbance.
GST-Sur-2352-625 was expressed and purified. Varied concentrations of the fusion protein were added to FITC-ESX129-145 (10 nM) in phosphate buffered saline containing 2% (v/v) ethanol, and the fluorescence spectra of FITC-ESX129-145 were measured by an ABI LS-50B Fluorescence Spectrometer (Ex: 490 nm). The dissociation constant of the interaction was estimated to be 12 μM through the emission perturbation at 522 nm.
To examine the effects of adamanolol on the interaction in vitro, the ethanol component of the binding buffer was replaced with an ethanolic solution of adamanolol. The fractions of FITC-ESX129-145 (10 nM) bound to 50 μM of GST-Sur-2352-625 were estimated by measuring fluorescence emission at 522 nm. ESX129-145 and pindolol were used as positive and negative controls, respectively.
In another series of derivatives (the R3 substituents in Table 1), the adamantane group of adamanolol was substituted (11a-d). […] The binding fractions were calculated on the basis of fluorescence spectra of FITC-ESX129-145 (152 nM) in presence of GST-Sur2352-625 (212 nM) and varied concentrations of each adamanolol derivative.

VP16 activation domain = test: Transcription reporter gene assay (GAL4 fusion, SEAP), VP16 activation domain; type: cell-based; details: HEK293Tag cells, 24 hour incubation with adamanolol
Description: (§3) Mammalian expression vectors each encoding the activation domain of ESX, VP16, or NFκBp65 fused with the GAL4 DNA-binding domain were used. Each expression construct was co-transfected to HEK293Tag human kidney cells together with a reporter plasmid in which the production of secreted alkaline phosphatase (SEAP) is under control of an IL-2 promoter carrying five GAL4 binding sites. After a 24 hour incubation in the presence or absence of adamanolol, an aliquot of the culture was assayed for SEAP activity. The total amounts of transfected DNA were normalized.
(§4) mammalian expression vectors, each encoding the activation domain of ESX, VP16, or NF-κB p65 fused with the GAL4 DNA-binding domain (amino acids 1-94), were used. Each expression construct was co-transfected to HEK293Tag human kidney cells together with a reporter plasmid in which the production of secreted alkaline phosphatase (SEAP) is under control of an IL2 promoter carrying five GAL4 binding sites. After 10-hr incubation with wrenchnolol (20 μM), an aliquot of the culture was assayed for SEAP activity.

[1] = test system: SK-BR3 breast cancer cells; test: Cell viability assay (WST-1) in SK-BR3 breast cancer cells; type: cell-based, human; details: for IC50: Homo sapiens, SK-BR-3, 48 hrs incubation, WST-1; for ability to kill SK-BR3 cells (biological activity, in words): compared with adamanolol
Description: SK-BR3 breast cancer cells were plated on 96-well plates at density of 5×10^3 cells/well and maintained for 24 hrs. The cells were then incubated with varied concentrations of each compound for 48 hrs, followed by addition of Premix WST-1 Solution (Takara). Cell viability was estimated by measuring absorbance at 450 nm after 1 hr with a SPECTRAmax microplatereader.

ESX activation domain = test: Transcription reporter gene assay (GAL4 fusion, SEAP), ESX activation domain; type: cell-based, human
Description: as §3, §4

BT474 cells = test: Animal study: BT474-derived tumors in mammary fat pads of nude mice; type: in vivo; details: 20 mg/kg daily intraperitoneal, 5 consecutive days each week for two weeks
Description: Breast cancer cell lines derived from BT474 after one round (BT474M1) or two rounds (BT474M2) of tumorigenic selection were used. 5×10^6 cells were injected with Matrigel into mammary fat pads of nude mice. Two tumors were inoculated for each animal and each treatment group contained 5 animals. Five weeks after inoculation when the tumors were well established (about 100 mm^3 in average) the treatment started (day 0 in the figure). Each mouse received adamanolol (7QH2) at a daily dose of 20 mg/kg through intraperitoneal injection for 5 consecutive days in each week for two weeks. Tumor volumes were measured every three days. The percentile of the tumor volume related to the initial volume at day 0 was plotted for each time point. Adamanolol is a potent tumor growth inhibitor of HER-2/neu-overexpressing cancer cells in vivo.

[2] = test system: Her2-positive breast cancer cell lines (SK-BR3, MDA-MB453, and MCF-7); test: Growth and viability of Her2-positive breast cancer cell lines; type: cell-based, human; details: SK-BR3, MDA-MB453, MCF-7, 24 hrs
Description: as §1, §2

[3] = Solubility in neutral aqueous solution; type: physicochemical
Description: When the amino group of the handle was protonated, wrenchnolol (7b) and its aminopropyl version (7a) became soluble up to ˜1 mM in neutral aqueous solution. The high water solubility enabled NMR analysis of these molecules in a buffered aqueous solution, and their proton signals were completely assigned through a combination of NOESY, DQF-COSY, and HOHAHA data sets (Table S1).

With `CC(C)N(CC(O)COc1cccc2[nH]ccc12)C(=O)N1CCC(C2CCN(C(=O)C34CC5CC(CC(C5)C3)C4)CC2)CC1` (stereo not drawn) [Compound 4a, 1′-(adamantane-1-carbonyl)-[4,4′]bipiperidinyl-1-carboxylic acid [2-hydroxy-3-3-(1H-indol-4-yloxy)-propyl]-isopropyl-amide] the “expression of Her2 protein” value (Her2) was “significantly reduced; also recorded: inhibition of Her2”, the “viability of MDA-MB468” value (MDA-MB468) was “much milder effects” and the IC50 (ESX-Sur-2 interaction) was 15.4 ± 0.3 µM. The “inhibition of the ESX-Sur-2 interaction in vitro (in words)” value (“inhibition of the ESX-Sur-2 interaction” below) (ESX-Sur-2 interaction) was “inhibits”, the “effect on the VP16 activation domain” value (VP16 activation domain) was “little effects” and the IC50 [1] was 6.4 ± 1.8 µM. For the same molecule, the “ability of the ESX activation domain to stimulate transcription” value (ESX activation domain; HEK293Tag cells, 24 hour incubation with adamanolol) was “impaired; also recorded: selectively inhibits”, the “tumor growth (tumor volume relative to day 0)” value (BT474 cells) was “significant growth suppression” and the “viability of Her2-positive breast cancer cell lines” value ([2]; listed as Adamanolol) was “impaired the viability”. The “viability of Her2-positive breast cancer cell lines” value ([2]; listed as adamanolol) was “selectively impairs the cell growth and viability”.
For `CC(C)CN(CC(O)COc1cccc2[nH]ccc12)C(=O)N1CCC(C2CCN(C(=O)C34CC5CC(CC(C5)C3)C4)CC2)CC1` (stereo not drawn) [Compound 4b], the IC50 (ESX-Sur-2 interaction) was 15.1 ± 0.8 µM and the IC50 [1] was 4.1 ± 0.2 µM.
For `O=C(NCC(O)COc1cccc2[nH]ccc12)N1CCC(C2CCN(C(=O)C34CC5CC(CC(C5)C3)C4)CC2)CC1` (stereo not drawn) [Compound 4d], the IC50 (ESX-Sur-2 interaction) was > 40 µM, the “inhibition of the ESX-Sur-2 interaction” value (ESX-Sur-2 interaction) was “abolished” and the IC50 [1] was > 100 µM. The “ability to kill SK-BR3 cells (biological activity, in words)” value (“ability … (biological activity, in words)” for short) [1] was “abolished; also recorded: little activity” and the “ability of the ESX activation domain to activate the reporter gene” value (ESX activation domain; HEK293 cells, 20 μM, 10-hr incubation) was “almost no effects; also recorded: little effects”.
Molecule `CC(C)(C)OC(=O)NCCCN(CC(O)COc1cccc2[nH]ccc12)C(=O)N1CCC(C2CCN(C(=O)C34CC5CC(CC(C5)C3)C4)CC2)CC1` (stereo not drawn) [Compound 4e] has an IC50 (ESX-Sur-2 interaction) of 11.9 ± 0.7 µM and an IC50 [1] of 11.7 ± 0.1 µM.
For `Cc1ccc(S(=O)(=O)n2ccc3c(OCC(O)CN(C(=O)N4CCC(C5CCN(C(=O)C67CC8CC(CC(C8)C6)C7)CC5)CC4)C(C)C)cccc32)cc1` (stereo not drawn) [Compound 5a, N-tosyladamanolol], the IC50 (ESX-Sur-2 interaction) was 10 ± 1 µM, the “inhibition of the ESX-Sur-2 interaction” value (ESX-Sur-2 interaction) was “increased” and the IC50 [1] was 2.7 ± 0.3 µM. For the same molecule, the “ability … (biological activity, in words)” value [1] was “increased the potency”.
Molecule `CC(C)N(CC(O)COc1cccc2c1ccn2S(=O)(=O)c1cccc2cccnc12)C(=O)N1CCC(C2CCN(C(=O)C34CC5CC(CC(C5)C3)C4)CC2)CC1` (stereo not drawn) [Compound 5b] has an IC50 (ESX-Sur-2 interaction) of 12 ± 0.9 µM and an IC50 [1] of 5 ± 0.3 µM.
`Cc1ccc(S(=O)(=O)n2ccc3c(OCC(O)CN(CCCN)C(=O)N4CCC(C5CCN(C(=O)C67CC8CC(CC(C8)C6)C7)CC5)CC4)cccc32)cc1` (stereo not drawn) [Compound 7a] showed an IC50 (ESX-Sur-2 interaction) of 10.2 ± 1.1 µM, an IC50 [1] of 4.7 ± 0.1 µM and a solubility [3] of ~1000 µM.
With `CC(=O)N1CCC(C2CCN(C(=O)N(CC(O)COc3cccc4[nH]ccc34)C(C)C)CC2)CC1` (stereo not drawn) [Compound 11a] the IC50 (ESX-Sur-2 interaction) was > 40 µM, the “inhibition of the ESX-Sur-2 interaction” value (ESX-Sur-2 interaction) was “almost no ability to block” and the IC50 [1] was > 100 µM. For the same molecule, the “ability … (biological activity, in words)” value [1] was “significant loss of the biological activity”.
For `COCC(O)CN(C(=O)N1CCC(C2CCN(C(=O)C34CC5CC(CC(C5)C3)C4)CC2)CC1)C(C)C` (stereo not drawn) [Compound 12a], the IC50 (ESX-Sur-2 interaction) was > 40 µM, the “inhibition of the ESX-Sur-2 interaction” value (ESX-Sur-2 interaction) was “abolished” and the IC50 [1] was > 100 µM. For the same molecule, the “ability … (biological activity, in words)” value [1] was “abolished”.
